In patent US5703085A, “Xanthine derivatives” (Kyowa Hakko Kogyo Co., Ltd., priority 1994, dated 1997):
Where two headings read alike, the source gives them in different places.

Columns and labels:
[1] = Effect on clonidine-induced aggressive behavior; assay type: in vivo, male ddY mice; conditions: po, clonidine 20 mg/kg ip; for Number of the Biting Attacks (mean ± S.E.M.), Test Compound-Treated Group: 30 min count
Protocol: Effect on Clonidine-Induced Aggressive Behavior
The enhancement effect of the test compounds on the aggressive behavior induced by intraperitoneal administration of clonidine [Eur. J. Pharmacol., 29, 374 (1968)] was investigated.
The experiment was performed using several groups of male ddY mice weighing 20 to 25 g (Japan SLC), each group consisting of two mice. A test compound was suspended in injectable distilled water (manufactured by Otsuka Pharmaceutical Co., Ltd.) after adding Tween 80. Clonidine hydrochloride (manufactured by Sigma Co.) was dissolved in physiological saline solution (manufactured by Otsuka Pharmaceutical Co., Ltd.). The suspension containing the test compound and the suspension containing no test compound (control) were orally administered to the separate groups of the mice (0.1 ml per 10 g of body weight). Sixty minutes after the oral administration of the test compound, clonidine hydrochloride (20 mg/kg) was intraperitoneally administered. The number of biting attacks during the 30 minutes immediately after the clonidine treatment was counted. The effect of the compounds was evaluated by comparing the number of biting attacks of the test compound-administered groups with that of control groups (significance test: Student' t-test).

A2 Receptor = biological target: T1, A2 Receptor (Rattus norvegicus, UniProt P30543); experiment: Adenosine A2 receptor binding test (inhibition of 3H-CGS 21680 binding); conditions: rat corpus striatum, 3H-CGS 21680 4.0 nM
T1 construct: from tissue; host or cells: rat corpus striatum (membrane suspension)
T1 sequence (P30543 whole entry): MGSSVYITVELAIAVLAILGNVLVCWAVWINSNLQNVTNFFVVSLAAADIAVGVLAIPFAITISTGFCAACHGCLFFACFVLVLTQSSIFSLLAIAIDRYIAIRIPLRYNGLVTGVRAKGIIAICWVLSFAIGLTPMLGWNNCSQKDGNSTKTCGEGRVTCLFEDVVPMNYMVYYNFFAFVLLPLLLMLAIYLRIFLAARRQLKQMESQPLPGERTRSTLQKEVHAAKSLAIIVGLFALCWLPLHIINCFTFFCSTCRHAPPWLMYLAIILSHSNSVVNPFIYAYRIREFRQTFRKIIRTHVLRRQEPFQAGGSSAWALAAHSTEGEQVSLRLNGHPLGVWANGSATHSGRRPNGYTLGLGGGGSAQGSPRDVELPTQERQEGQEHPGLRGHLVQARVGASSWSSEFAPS
Protocol: Adenosine Receptor Antagonistic Activity (Adenosine A2 Receptor Binding Test)
The test was conducted according to the method of Bruns et al. [Mol. Pharmacol., 29, 331 (1986)] with slight modification.
Corpus striatum of a rat was suspended in ice-cooled 50 mM Tris (hydroxymethyl) aminomethane hydrochloride (Tris HCl) buffer (pH 7.7) by using Polytron homogenizer (manufactured by Kinematica Co.). The suspension was centrifuged (50,000×g, 10 minutes), and the precipitate was suspended again in the same amount of 50 mM Tris HCl buffer. The suspension was centrifuged under the same conditions, and the final precipitate was suspended in 50 mM Tris HCl buffer [containing 10 mM magnesium chloride and 0.02 unit/mg tissue of adenosine deaminase (manufactured by Sigma Co.)] to give a tissue concentration of 5 mg (wet weight)/ml.
To 1 ml of the tissue suspension thus prepared were added 50 μl of tritium labeled CGS 21680 {^3 H-2-[p-(2-carboxyethyl) phenethylamino]-5'-(N-ethylcarboxamide)-adenosine: 40 Ci/mmol; manufactured by New England Nuclear Co. [J. Pharmacol. Exp. Ther., 251, 888 (1989)]} (final concentration: 4.0 nM) and 50 μl of a test compound. The resulting mixture was allowed to stand at 25° C. for 120 minutes and then rapidly filtered by suction through a glass fiber filter (GF/C; manufactured by Whatman Co.). The filter was immediately washed three times with 5 ml each of ice-cooled 50 mM Tris HCl buffer, and transferred to a vial, and a scintillator (EX-H; manufactured by Wako Pure Chemical Industries, Ltd.) was added thereto. The radioactivity on the filter was determined with a liquid scintillation counter (manufactured by Packard Instrument Co.).
The inhibition rate of the test compound against the binding of A2 receptors (^3 H-CGS 21680 binding) was calculated by the following equation: [formula] [Notes]B: Amount of the binding in the presence of the test compound.
T: Amount of the total binding.
N: Amount of the nonspecific binding.
Amount of the total binding means the amount of radioactivity of ^3 H-CGS 21680 bound in the absence of the test compound. Amount of the nonspecific binding means the amount of radioactivity of ^3 H-CGS 21680 bound in the presence of 100 μM cyclopentyladenosine (CPA; manufactured by Sigma Co.). Amount of the binding in the presence of the test compound means the amount of radioactivity of ^3 H-CGS 21680 bound in the presence of the test compound at various levels of concentrations.

[2] = Effect on haloperidol-induced catalepsy; assay type: in vivo, male ddY mice; conditions: 10 mg/kg po; for Total Score (catalepsy): 1 h after compound; for inhibition in vivo at 10 mg/kg: Mus musculus, 1 h, decrease in total score vs control group, read-out: Remission Rate (%)
Protocol: Effect on Haloperidol-Induced Catalepsy
Parkinson's disease is a clinical syndrome caused by degeneration and cell death of nigrostriatal dopaminergic neurons. Administration of haloperidol (dopamine D1 /D2 antagonist) induces catalepsy resulting from the blockade of postsynaptic dopamine D2 receptors.
The experiment was carried out using several groups of 5-week-old male ddY mice (weighing 22 to 24 g, Japan SLC), each group consisting of 5 or 10 mice. Haloperidol (manufactured by Janssen Pharmaceutica) was suspended in 0.3% CMC and imtraperitoneally administered to each mouse at a dose of 1.0 mg/kg. A test compound was suspended in injectable distilled water (manufactured by Otsuka Pharmaceutical Co., Ltd.) after adding Tween 80 [polyoxyethylene (20) sorbitan monooleate]. L-DOPA (manufactured by Kyowa Hakko Kogyo Co., Ltd.) and benserazide hydrochloride (manufactured by Kyowa Hakko Kogyo Co., Ltd.) were suspended in 0.3% CMC. One hour after the intraperitoneal administration of haloperidol, the suspension containing the test compound or the suspension containing no test compound [injectable distilled water (manufactured by Otsuka Pharmaceutical Co., Ltd.) containing Tween 80; control] were orally administered to the separate groups of the mice (0.1 ml per 10 g of body weight). One hour after the administration of the test compound, the forelimbs of each mouse and subsequently the hindlimbs of the same mouse were placed on a 4.5 cm-high, 1.0 cm-wide bar and catalepsy was estimated. All of the test compounds were orally administered at a dose of 10 mg/kg, and L-DOPA (100 mg/kg) and benserazide (25 mg/kg) were intraperitoneally administered together as a control. The catalepsy score and the standard of judgment are shown below. […]
Score Duration of the category
0: forelimbs less than 5 seconds
hindlimbs less than 5 seconds
1: forelimbs from 5 (inclusive)
to 10 (exclusive) seconds
2: forelimbs 10 seconds or more
3: (1) forelimbs from 5 (inclusive)
hindlimbs from 5 (inclusive)
or (2) forelimbs less than 5 seconds
hindlimbs 5 seconds or more
4: (1) forelimbs 10 seconds or more
or (2) forelimbs from 5 (inclusive)
hindlimbs 10 seconds or more
5: forelimbs 10 seconds or more
The effect of the compounds was evaluated by the total of the catalepsy scores of 5 or 10 mice in each group (25 or 50 points at the maximum). The groups wherein the total score was not more than 20 or 40 points were estimated to be effective. The number of the animals showing remission against catalepsy is the number of the mice for which the catalepsy score was not more than 4 points in 5 or 10 mice.

[3] = 5 mice (max 25 points; control 25)
[4] = out of 5 mice (score not more than 4)
[5] = out of 10 mice (score not more than 4)

Structure (SMILES)	Ratio of Attacks: Test Compd.-Treated Group/Control Group ([1]; 0.63 mg/kg)	Number of the Biting Attacks (mean ± S.E.M.), Test Compound-Treated Group ([1]; 0.63 mg/kg)	A2 Receptor Inhibition Rate (%) (A2 Receptor; 10^-6 M)	A2 Receptor Inhibition Rate (%) (A2 Receptor; 10^-7 M)	Total Score (catalepsy) [2, 3]	Number of Animals Showing Remission [2, 4]	inhibition in vivo at 10 mg/kg ([2]; 5 mice) [%]	Ratio of Attacks: Test Compd.-Treated Group/Control Group ([1]; 10 mg/kg)	Number of the Biting Attacks (mean ± S.E.M.), Test Compound-Treated Group ([1]; 10 mg/kg)	Ratio of Attacks: Test Compd.-Treated Group/Control Group ([1]; 2.5 mg/kg)	Number of the Biting Attacks (mean ± S.E.M.), Test Compound-Treated Group ([1]; 2.5 mg/kg)	Total Score (catalepsy) ([2]; 10 mice (max 50 points))	Number of Animals Showing Remission [2, 5]	inhibition in vivo at 10 mg/kg ([2]; 10 mice) [%]
CCn1c(=O)c2c(nc(/C=C/c3ccc(OC(C)=O)c(OC)c3)n2C)n(CC)c1=O [Compound 5, (E)-8-(4-Acetoxy-3-methoxystyryl)-1,3-diethyl-7-methylxanthine]	4.9	19.1 ± 6.6	100	91	2	5	92	–	–	–	–	–	–	–
CCCn1c(=O)c2c(nc(/C=C/c3ccc(OC(=O)c4ccccc4)c(OC)c3)n2C)n(CCC)c1=O [Compound 6, (E)-8-(4-Benzoyloxy-3-methoxystyryl)-7-methyl-1,3-dipropylxanthine]	–	–	96	81	9	5	64	16.0	36.8 ± 10.8	–	–	–	–	–
CCC(=O)Oc1ccc(/C=C/c2nc3c(c(=O)n(CC)c(=O)n3CC)n2C)cc1OC [Compound 12, (E)-1,3-Diethyl-8-(3-methoxy-4-propionyloxystyryl)-7-methylxanthine]	–	–	96	86	–	–	–	–	–	20.3	38.5 ± 8.4	10	10	80
CCn1c(=O)c2c(nc(/C=C/c3ccc(OC(C)=O)cc3)n2C)n(CC)c1=O [Compound 14, (E)-8-(4-Acetoxystyryl)-1,3-diethyl-7-methylxanthine]	4.1	21.4 ± 7.4	93	86	–	–	–	–	–	–	–	11	10	78
